In general, IC50 refers to the concentration needed to halve the response being measured.

A value given as a limit tells only on which side of the number the result lay.

The results in this text go back to patent US12662491B2 (Redona Therapeutics, Inc., priority 2020, dated 2026).

The target in the experiment is T1, Zcchc11 enzyme (Homo sapiens, UniProt Q5TAX3).
T1 construct: made in house; host or cells: HEK293 cells (Zcchc11); E. coli Rosetta II (LIN28A)
T1 sequence (Q5TAX3 212-1420): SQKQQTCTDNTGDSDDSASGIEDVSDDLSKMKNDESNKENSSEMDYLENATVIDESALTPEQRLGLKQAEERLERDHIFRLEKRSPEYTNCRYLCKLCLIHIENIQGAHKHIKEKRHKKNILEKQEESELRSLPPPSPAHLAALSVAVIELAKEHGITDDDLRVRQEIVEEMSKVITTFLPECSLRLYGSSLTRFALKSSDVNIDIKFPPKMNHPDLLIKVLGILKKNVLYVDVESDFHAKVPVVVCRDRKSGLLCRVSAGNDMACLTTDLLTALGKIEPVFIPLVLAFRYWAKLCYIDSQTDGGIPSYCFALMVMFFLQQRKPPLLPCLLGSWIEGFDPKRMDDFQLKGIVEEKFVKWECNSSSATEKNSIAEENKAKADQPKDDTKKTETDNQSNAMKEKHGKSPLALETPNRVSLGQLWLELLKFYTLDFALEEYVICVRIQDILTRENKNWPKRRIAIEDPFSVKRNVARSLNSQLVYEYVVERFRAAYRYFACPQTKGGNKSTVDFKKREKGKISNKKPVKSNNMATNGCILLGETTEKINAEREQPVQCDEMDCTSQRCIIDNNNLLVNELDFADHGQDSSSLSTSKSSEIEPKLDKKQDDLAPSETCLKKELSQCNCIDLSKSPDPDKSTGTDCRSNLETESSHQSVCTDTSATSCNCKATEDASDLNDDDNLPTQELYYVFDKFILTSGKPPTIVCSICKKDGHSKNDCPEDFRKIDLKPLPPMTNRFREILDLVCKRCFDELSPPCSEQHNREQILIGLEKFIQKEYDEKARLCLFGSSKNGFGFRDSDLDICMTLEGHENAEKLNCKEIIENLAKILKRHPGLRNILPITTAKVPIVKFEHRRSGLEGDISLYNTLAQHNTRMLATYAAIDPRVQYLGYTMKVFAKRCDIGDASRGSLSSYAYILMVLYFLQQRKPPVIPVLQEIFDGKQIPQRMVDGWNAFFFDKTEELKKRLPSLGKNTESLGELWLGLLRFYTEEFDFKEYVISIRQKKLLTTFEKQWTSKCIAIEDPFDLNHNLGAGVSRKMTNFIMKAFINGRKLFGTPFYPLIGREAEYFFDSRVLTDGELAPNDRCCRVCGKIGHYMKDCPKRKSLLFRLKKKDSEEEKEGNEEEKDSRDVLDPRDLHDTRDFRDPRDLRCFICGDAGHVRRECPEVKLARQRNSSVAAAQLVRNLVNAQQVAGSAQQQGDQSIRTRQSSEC
The experiment can be described thus: TUTase assay (Zcchc11 assay, Lin28a-dependent polyuridylation of pre-let-7). In kind it is biochemical. The conditions noted are these: Lin28a-dependent Zcchc11 (Z11) TUTase assay; read-out: Potency Lin28a-dep Z11 IC50. Summed up: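 Readout: time-dependent quench of 5′-fluorescein pre-let-7 (2 nM) as 3′-rhodamine A20 probe anneals to poly(U) tails. Enzyme 0.2 nM Zcchc11 (res. 212-1420), LIN28A 10 nM, UTP 5 uM; pH 7.3 HEPES, 150 mM KCl, 5 mM MgCl2, RT. 4-parameter IC50; 100% = DMSO, 0% = no UTP.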
With `CN(C)C1CN(c2ccc(-n3cc(C(=O)O)c(=O)c4cc(Cl)c(N5CCC[C@@]5(C)COc5ncccc5Cl)cc43)cn2)C1` [Example 609, (S)-6-chloro-7-(2-(((3-chloropyridin-2-yl)oxy)methyl)-2-methylpyrrolidin-1-yl)-1-(6-(3-(dimethylamino)azetidin-1-yl)pyridin-3-yl)-4-oxo-1,4-dihydroquinoline-3-carboxylic acid], the IC50 was not above 1000 nM. Under `CN(C)C1CN(c2ccc(-n3cc(C(=O)O)c(=O)c4cc(Cl)c(N5CCC[C@@H]5C[S+]([O-])c5ncccc5Cl)cc43)cn2)C1` (stereo partly drawn) [Example 610, 6-chloro-7-((2R)-2-(((3-chloropyridin-2-yl)sulfinyl)methyl)pyrrolidin-1-yl)-1-(6-(3-(dimethylamino)azetidin-1-yl)pyridin-3-yl)-4-oxo-1,4-dihydroquinoline-3-carboxylic acid] stands 1000 to 10000 nM. In the case of `O=C(O)c1cn(-c2ccc(C3(O)CNC3)nc2)c2cc(N3CCC[C@@H]3COc3ncccc3Cl)c(Cl)cc2c1=O` [Example 611, (R)-6-chloro-7-(2-(((3-chloropyridin-2-yl)oxy)methyl)pyrrolidin-1-yl)-1-(6-(3-hydroxyazetidin-3-yl)pyridin-3-yl)-4-oxo-1,4-dihydroquinoline-3-carboxylic acid], the half-inhibitory concentration (IC50) was not above 1000 nM. Turning to `CN(C)C1CN(c2ccc(-n3cc(C(=O)O)c(=O)c4cc(F)c(N5CCC[C@@H]5COc5cc(OCc6ccccc6)ccn5)c(F)c43)cn2)C1` [Example 612, (R)-7-(2-(((4-(benzyloxy)pyridin-2-yl)oxy)methyl)pyrrolidin-1-yl)-1-(6-(3-(dimethylamino)azetidin-1-yl)pyridin-3-yl)-6,8 difluoro-4-oxo-1,4-dihydroquinoline-3-carboxylic acid], the 50% inhibitory concentration (IC50) is not above 1000 nM. Take `CN(C)C1CN(c2ccc(-n3cc(C(=O)O)c(=O)c4cc(F)c(N5CCC[C@@H]5COc5ncccc5Cl)c(F)c43)cn2)C1` [Example 613]: the IC50 was not above 1000 nM. In the case of `COCCN(C)C1CN(c2ccc(-n3cc(C(=O)O)c(=O)c4cc(F)c(N5CCC[C@@H]5COc5ncccc5Cl)cc43)cn2)C1` [Example 614, (R)-7-(2-(((3-chloropyridin-2-yl)oxy)methyl)pyrrolidin-1-yl)-6-fluoro-1-(6-(3-((2-methoxyethyl) (methyl)amino)azetidin-1-yl)pyridin-3-yl)-4-oxo-1,4-dihydroquinoline-3-carboxylic acid], the IC50 is not above 1000 nM.

As for `CC(C)(C)OC(=O)N1CC(c2ccc(-n3cc(C(=O)O)c(=O)c4cc(Cl)c(N5CCC[C@@H]5COc5ncccc5Cl)cc43)cn2)C1` [Example 615, (R)-1-(6-(1-(tert-butoxycarbonyl)azetidin-3-yl)pyridin-3-yl)-6-chloro-7-(2-(((3-chloropyridin-2-yl)oxy)methyl)pyrrolidin-1-yl)-4-oxo-1,4-dihydroquinoline-3-carboxylic acid], the IC50 is not above 1000 nM.

`Cc1nc2cc(-n3cc(C(=O)O)c(=O)c4cc(Cl)c(N5CCC[C@@H]5COc5ncccc5Cl)cc43)ncc2[nH]1` [Example 616, (R)-6-chloro-7-(2-(((3-chloropyridin-2-yl)oxy)methyl)pyrrolidin-1-yl)-1-(2-methyl-3H-imidazo[4,5-c]pyridin-6-yl)-4-oxo-1,4-dihydroquinoline-3-carboxylic acid]: the IC50 was not above 1000 nM. Consider `Nc1cc(-n2cc(C(=O)O)c(=O)c3cc(Cl)c(N4CCC[C@@H]4COc4ncccc4Cl)cc32)cnn1` [Example 617, (R)-1-(6-aminopyridazin-4-yl)-6-chloro-7-(2-(((3-chloropyridin-2-yl)oxy)methyl)pyrrolidin-1-yl)-4-oxo-1,4-dihydroquinoline-3-carboxylic acid], for which the half-inhibitory concentration (IC50) was not above 1000 nM.

Turning to `CN(C)C1CN(c2ccc(-n3cc(C(=O)O)c(=O)c4cc(Cl)c(N5CCC[C@@H]5CS(=O)(=O)c5ncccc5Cl)cc43)cn2)C1` [Example 618, (R)-6-chloro-7-(2-(((3-chloropyridin-2-yl)sulfonyl)methyl)pyrrolidin-1-yl)-1-(6-(3-(dimethylamino)azetidin-1-yl)pyridin-3-yl)-4-oxo-1,4-dihydroquinoline-3-carboxylic acid], the IC50 is not above 1000 nM. Regarding `CN(C)C1CN(c2ccc(-n3cc(C(=O)O)c(=O)c4cc(Cl)c(N5C6CC6C[C@@H]5COc5ccccn5)cc43)cn2)C1` (stereo partly drawn) [Example 619, 6-chloro-1-(6-(3-(dimethylamino)azetidin-1-yl)pyridin-3-yl)-4-oxo-7-((3R)-3-((pyridin-2-yloxy)methyl)-2-azabicyclo[3.1.0]hexan-2-yl)-1,4-dihydroquinoline-3-carboxylic acid], the concentration for half-maximal inhibition (IC50) was not above 1000 nM. With `CN(C)C1CN(c2ccc(-n3cc(C(=O)O)c(=O)c4cc(F)c(N5CCC[C@]5(C)COc5ncccc5Cl)nc43)cn2)C1` [Example 620, (R)-7-(2-(((3-chloropyridin-2-yl)oxy)methyl)-2-methylpyrrolidin-1-yl)-1-(6-(3-(dimethylamino)azetidin-1-yl)pyridin-3-yl)-6-fluoro-4-oxo-1,4-dihydro-1,8-naphthyridine-3-carboxylic acid], the IC50 is not above 1000 nM.

`O=C(O)c1cn(-c2ccc3c(c2)CS(=O)(=O)N3)c2cc(N3CCC[C@@H]3COc3ncccc3Cl)c(Cl)cc2c1=O` [Example 621, (R)-6-chloro-7-(2-(((3-chloropyridin-2-yl)oxy)methyl)pyrrolidin-1-yl)-1-(2,2-dioxido-1,3-dihydrobenzo[c]isothiazol-5-yl)-4-oxo-1,4-dihydroquinoline-3-carboxylic acid]: the 50% inhibitory concentration (IC50) was not above 1000 nM. On to `CN(C)C1CN(c2ncc(-n3cc(C(=O)O)c(=O)c4cc(Cl)c(N5CCC[C@]5(C)COc5ncccc5Cl)nc43)cn2)C1` [Example 622, (R)-6-chloro-7-(2-(((3-chloropyridin-2-yl)oxy)methyl)-2-methylpyrrolidin-1-yl)-1-(2-(3-(dimethylamino)azetidin-1-yl)pyrimidin-5-yl)-4-oxo-1,4-dihydro-1,8-naphthyridine-3-carboxylic acid], for which the IC50 fell in the range of 1000 to 10000 nM. For `CN(C)C1CN(c2ncc(-n3cc(C(=O)O)c(=O)c4cc(Cl)c(N5CCC[C@@]5(C)COc5ncccc5Cl)nc43)cn2)C1` [Example 623, (S)-6-chloro-7-(2-(((3-chloropyridin-2-yl)oxy)methyl)-2-methylpyrrolidin-1-yl)-1-(2-(3-(dimethylamino)azetidin-1-yl)pyrimidin-5-yl)-4-oxo-1,4-dihydro-1,8-naphthyridine-3-carboxylic acid], the IC50 was not above 1000 nM. For the molecule `CN(C)C1CN(c2ccc(-n3cc(C(=O)O)c(=O)c4cc(Cl)c(N5CCC[C@@H]5COc5nc(OC6CC6)ccc5Cl)cc43)cn2)C1` [Example 624, (R)-6-chloro-7-(2-(((3-chloro-6-cyclopropoxy-pyridin-2-yl)oxy)methyl)pyrrolidin-1-yl)-1-(6-(3-(dimethylamino)azetidin-1-yl)pyridin-3-yl)-4-oxo-1,4-dihydroquinoline-3-carboxylic acid], the IC50 was not above 1000 nM.

Regarding `COc1ccc(Cl)c(OC[C@H]2CC(C)CN2c2cc3c(cc2Cl)c(=O)c(C(=O)O)cn3-c2ccc(N3CC(N(C)C)C3)nc2)n1` (stereo partly drawn) [Example 625, 6-chloro-7-((2R)-2-(((3-chloro-6-methoxypyridin-2-yl)oxy)methyl)-4-methylpyrrolidin-1-yl)-1-(6-(3-(dimethylamino)azetidin-1-yl)pyridin-3-yl)-4-oxo-1,4-dihydroquinoline-3-carboxylic acid], the 50% inhibitory concentration (IC50) is not above 1000 nM.

Consider `CN1CC(c2ccc(-n3cc(C(=O)O)c(=O)c4cc(Cl)c(N5CCC[C@@H]5COc5ncccc5Cl)cc43)cn2)C1` [Example 626, (R)-6-chloro-7-(2-(((3-chloropyridin-2-yl)oxy)methyl)pyrrolidin-1-yl)-1-(6-(1-methyl-azetidin-3-yl)pyridin-3-yl)-4-oxo-1,4-dihydroquinoline-3-carboxylic acid], for which the IC50 was not above 1000 nM.
